Among the data in BindingDB's records for doi:10.1016/s0960-894x(01)00026-9 (University of Minnesota, 2001) are IC50 values, retold here.

SMILES strings stand for the structures.

Test [1] can be described thus: Inhibitory concentration against Protein phosphatase 2A (25 nM) isolated from bovine myocardial tissue.
Test [2] addresses Serine/threonine-protein phosphatase PP1 catalytic subunit (Oryctolagus cuniculus). Description: Inhibitory concentration against Protein phosphatase 1(10 nM) isolated from rabbit muscle.

For the compound `C=C1[C@@H](O)[C@@H]2O[C@]3(CCCO3)CC[C@H]2O[C@@H]1[C@@H](O)C[C@H](C)[C@H]1O[C@@]2(CCCCO2)CC[C@H]1C` [okadaic acid analogue], in test [1], the IC50 (in general, the concentration needed to halve the response being measured) was above 1000 µM.

Take `C=C1[C@@H](O)[C@@H]2O[C@]3(CC[C@H](/C=C/[C@@H](C)[C@@H]4CC(C)=C[C@@]5(O[C@H](C[C@@](C)(O)C(=O)O)CC[C@H]5O)O4)O3)CC[C@H]2O[C@@H]1CO` [okadaic acid analogue]: the half-inhibitory concentration (IC50) was determined as 94 µM in test [2] and 0.304 µM in test [1].

The compound `C=C1[C@@H](O)[C@@H]2O[C@]3(CC[C@H](/C=C/[C@@H](C)[C@@H]4CC(C)=C[C@@]5(O[C@H](C[C@@](C)(O)C(=O)O)CC[C@H]5O)O4)O3)CC[C@H]2O[C@@H]1[C@@H](O)C[C@H](C)[C@H]1O[C@@]2(CCCCO2)CC[C@H]1C` [okadaic acid analogue] returned an IC50 in test [1] of 0.007 µM.
